{
  "source": "patent US12371454B2",
  "about": "“Cyclic peptide compound having Kras inhibitory action” (priority 2019, dated 2025)",
  "note": "pIC50: −log10 of the molar value. Starred links: 1 amine or outer side, 2 acyl side, 3 side chain; linkers in the order of their positions; H or OH if unused. Positions of bridges follow the written chain, without caps; N, C: chain ends. Non-standard residues stand in square brackets, D forms with d. Residues, ends and D or L forms follow the SMILES beside them. *: point of attachment. hPhe(3-Cl-4-CF3) = N[C@@H](CCc1ccc(C(F)(F)F)c(Cl)c1)C(=O)O; hPhe(3-F,4-CF3) = N[C@@H](CCc1ccc(C(F)(F)F)c(F)c1)C(=O)O; hPhe(4-CF3) = N[C@@H](CCc1ccc(C(F)(F)F)cc1)C(=O)O; NEtPhe(4-Cl) = CCN[C@@H](Cc1ccc(Cl)cc1)C(=O)O; NMePhe(4-Cl) = CN[C@@H](Cc1ccc(Cl)cc1)C(=O)O; NMePhe(4-Me) = CN[C@@H](Cc1ccc(C)cc1)C(=O)O; NMePhe(2-Cl) = CN[C@@H](Cc1ccccc1Cl)C(=O)O; NMedβ3hAla = C[C@H](CC(=O)[*:2])N(C)[*:1]; NMeGly(cPent) = CN[C@H](C(=O)O)C1CCCC1; Pro(4,4-F2) = O=C(O)[C@@H]1CC(F)(F)CN1; NMeCha = CN[C@@H](CC1CCCCC1)C(=O)O; NMeChg = CN[C@H](C(=O)O)C1CCCCC1; NMeF = CN[C@@H](Cc1ccccc1)C(=O)O; NMeI = CC[C@H](C)[C@H](NC)C(=O)O; NMeD = CN[C@@H](CC(=O)O)C(=O)O; CH2CONHtBu = CC(C)(C)NC(=O)C*; NMeL = CN[C@@H](CC(C)C)C(=O)O; NMeV = CN[C@H](C(=O)O)C(C)C; Trifluoroethyl = FC(F)(F)C*; d(β3hA) = C[C@@H](N)CC(=O)O; NMeS = CN[C@@H](CO)C(=O)O; NMeA = CN[C@@H](C)C(=O)O; NMeAib = CNC(C)(C)C(=O)O; Nle = CCCC[C@H](N)C(=O)O; Piperidide = C1CCN(*)CC1; Pyrrolidide = C1CCN(*)C1; Ac5c = NC1(C(=O)O)CCCC1; Aze = O=C(O)[C@@H]1CCN1; Ac4c = NC1(C(=O)O)CCC1; Sar = CNCC(=O)O",
  "data": [
    {"target": "T1, Kras and SOS1 (biotin-tagged human Kras loaded with GDP, His-tagged human SOS1) (Homo sapiens, UniProt P01116, G12D)", "T1 construct": "made in house; host or cells: E. coli (stated for Kras only)", "T1 sequence (P01116 1-188 isoform P01116-2 G12D)": "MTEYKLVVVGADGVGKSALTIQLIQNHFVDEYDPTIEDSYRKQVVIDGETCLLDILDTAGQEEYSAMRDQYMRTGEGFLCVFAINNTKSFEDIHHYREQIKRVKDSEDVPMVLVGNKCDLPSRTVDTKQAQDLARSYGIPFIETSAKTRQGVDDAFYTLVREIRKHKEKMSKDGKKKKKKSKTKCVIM", "assay": "Protein-protein interaction inhibition between Kras and SOS1 (KrasGl2D-SOS PPI) using AlphaScreen", "type": "binding", "details": "AlphaScreen; biotin-tagged human Kras loaded with GDP, His-tagged human SOS1; read-out: KRAS G12D-SOS PPI IC50", "procedure,_shortened": "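Energy transfer from nickel-chelate donor beads bound to His-SOS1 to streptavidin acceptor beads bound to biotin-Kras, expressed in E. coli and loaded with GDP after purification, was monitored. Donors were excited at 680 nm; singlet oxygen reaching acceptors gave emission read at 520-620 nm.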", "values": [
      {"smiles": "CC[C@H](C)[C@@H]1NC(=O)[C@H](C)N(C)C(=O)C[C@@H](C(=O)N2CCCC2)NC(=O)[C@H](CC(C)C)N(C)C(=O)[C@H](COCC(=O)NC(C)(C)C)N(C)C(=O)[C@H](CC(C)C)NC(=O)[C@H](CCc2ccc(C(F)(F)F)cc2)NC(=O)CN(C)C(=O)[C@H](Cc2ccc(Cl)cc2)N(C)C(=O)CN(C)C(=O)CN(C)C1=O", "note": "[Compound 889] ([NMeA]I[Sar][Sar][NMePhe(4-Cl)][Sar][hPhe(4-CF3)]L[NMeS](CH2CONHtBu)[NMeL]D-Pyrrolidide; lactam N-11)", "pIC50": 7.15},
      {"smiles": "CC[C@H](C)[C@@H]1NC(=O)[C@H](CC(C)C)N(C)C(=O)C[C@@H](C)N(C)C(=O)[C@H]([C@@H](C)CC)N(C)C(=O)C2(CCC2)NC(=O)[C@@H]2CC(F)(F)CN2C(=O)[C@H](CCc2ccc(C(F)(F)F)c(Cl)c2)NC(=O)CN(C)C(=O)[C@H](CC2CCCCC2)N(C)C(=O)CN(C)C(=O)CN(C)C1=O", "note": "[Compound 891] (cyclo([Ac4c][NMeI][NMedβ3hAla][NMeL]I[Sar][Sar][NMeCha][Sar][hPhe(3-Cl-4-CF3)][Pro(4,4-F2)]))", "pIC50": 8.02},
      {"smiles": "CC(C)C[C@H]1C(=O)N[C@@H](COCC(F)(F)F)C(=O)N(C)CC(=O)N(C)CC(=O)N(C)[C@@H](CC2CCCCC2)C(=O)N(C)CC(=O)N[C@@H](CCc2ccc(C(F)(F)F)c(Cl)c2)C(=O)N2CCC[C@H]2C(=O)NC2(CCCC2)C(=O)N(C)[C@@H](C2CCCCC2)C(=O)N(C)[C@H](C(=O)N2CCCCC2)CC(=O)N1C", "note": "[Compound 894] ([NMeL]S(Trifluoroethyl)[Sar][Sar][NMeCha][Sar][hPhe(3-Cl-4-CF3)]P[Ac5c][NMeChg][NMeD]-Piperidide; lactam N-11)", "pIC50": 7.96},
      {"smiles": "CCCC[C@@H]1NC(=O)[C@H](CCc2ccc(C(F)(F)F)c(Cl)c2)NC(=O)CN(C)C(=O)[C@H](Cc2ccc(Cl)cc2)N(CC)C(=O)CN(C)C(=O)CN(C)C(=O)[C@H]([C@@H](C)CC)NC(=O)[C@H](CC(C)C)N(C)C(=O)C[C@@H](C(=O)N2CCCCC2)N(C)C(=O)[C@H](CC(C)C)NC(=O)C(C)(C)N(C)C1=O", "note": "[Compound 895] ([NMeL]I[Sar][Sar][NEtPhe(4-Cl)][Sar][hPhe(3-Cl-4-CF3)][Nle][NMeAib]L[NMeD]-Piperidide; lactam N-11)", "pIC50": 8.08},
      {"smiles": "CC[C@H](C)[C@@H]1NC(=O)[C@H](C)N(C)C(=O)C[C@@H](C)NC(=O)[C@H](CC(C)C)N(C)C(=O)[C@H](CC(C)C)N(C)C(=O)[C@@H]2CCCN2C(=O)[C@H](CCc2ccc(C(F)(F)F)cc2)NC(=O)CN(C)C(=O)[C@H](Cc2ccc(Cl)cc2)N(C)C(=O)CN(C)C(=O)CN(C)C1=O", "note": "[Compound 902] (cyclo(I[Sar][Sar][NMePhe(4-Cl)][Sar][hPhe(4-CF3)]P[NMeL][NMeL][d(β3hA)][NMeA]))", "pIC50": 6.85},
      {"smiles": "CC[C@H](C)[C@@H]1NC(=O)[C@H](CC(C)C)N(C)C(=O)C[C@@H](C)N(C)C(=O)[C@H](CC(C)C)NC(=O)C(C)(C)N(C)C(=O)[C@H](CC(C)C)NC(=O)[C@H](CCc2ccc(C(F)(F)F)c(F)c2)NC(=O)CN(C)C(=O)[C@H](CC2CCCCC2)N(C)C(=O)CN(C)C(=O)[C@@H]2CCN2C1=O", "note": "[Compound 905] (cyclo([Aze][Sar][NMeCha][Sar][hPhe(3-F,4-CF3)]L[NMeAib]L[NMedβ3hAla][NMeL]I))", "pIC50": 6.74},
      {"smiles": "CC[C@H](C)[C@@H]1NC(=O)[C@H](C)N(C)C(=O)C[C@@H](C(=O)N2CCCC2)N(C)C(=O)[C@H](C(C)C)N(C)C(=O)C2(CCC2)NC(=O)[C@H](Cc2ccccc2Cl)N(C)C(=O)[C@H](CCc2ccc(C(F)(F)F)c(Cl)c2)NC(=O)CN(C)C(=O)[C@H](CC2CCCCC2)N(C)C(=O)CN(C)C(=O)CN(C)C1=O", "note": "[Compound 906] ([NMeA]I[Sar][Sar][NMeCha][Sar][hPhe(3-Cl-4-CF3)][NMePhe(2-Cl)][Ac4c][NMeV][NMeD]-Pyrrolidide; lactam N-11)", "pIC50": 8.57},
      {"smiles": "CC[C@H](C)[C@@H]1NC(=O)[C@H](CC(C)C)N(C)C(=O)C[C@@H](C(=O)N(C)C)N(C)C(=O)[C@H](C2CCCC2)N(C)C(=O)C2(CCCC2)NC(=O)[C@H](Cc2ccc(C)cc2)N(C)C(=O)[C@H](CCc2ccc(C(F)(F)F)c(Cl)c2)NC(=O)CN(C)C(=O)[C@H](CC2CCCCC2)N(C)C(=O)[C@@H]2CCN2C(=O)[C@H](C)N(C)C1=O", "note": "[Compound 908] ([NMeL]I[NMeA][Aze][NMeCha][Sar][hPhe(3-Cl-4-CF3)][NMePhe(4-Me)][Ac5c][NMeGly(cPent)][NMeD]-NMe2; lactam N-11)", "pIC50": 7.41},
      {"smiles": "CC[C@H](C)[C@@H]1NC(=O)[C@H](C)N(C)C(=O)C[C@@H](C)NC(=O)[C@H](C(C)C)N(C)C(=O)[C@H](Cc2ccccc2)N(C)C(=O)[C@H](CC(C)C)N(C)C(=O)[C@H](CCc2ccc(C(F)(F)F)cc2)NC(=O)CN(C)C(=O)[C@H](Cc2ccc(Cl)cc2)N(C)C(=O)[C@@H]2CCN2C(=O)CN(C)C1=O", "note": "[Compound 913] (cyclo([Aze][NMePhe(4-Cl)][Sar][hPhe(4-CF3)][NMeL][NMeF][NMeV][d(β3hA)][NMeA]I[Sar]))", "pIC50": 7.28},
      {"smiles": "CC[C@H](C)[C@@H]1NC(=O)[C@H](CC(C)C)N(C)C(=O)C[C@@H](C(=O)N(C)C)N(C)C(=O)[C@H]([C@@H](C)CC)N(C)C(=O)[C@H](C(C)C)NC(=O)[C@@H](C)NC(=O)[C@H](CCc2ccc(C(F)(F)F)c(Cl)c2)NC(=O)CN(C)C(=O)[C@H](Cc2ccc(C)cc2)N(C)C(=O)[C@@H]2CCN2C(=O)[C@H](C)N(C)C1=O", "note": "[Compound 915] ([NMeL]I[NMeA][Aze][NMePhe(4-Me)][Sar][hPhe(3-Cl-4-CF3)][dA]V[NMeI][NMeD]-NMe2; lactam N-11)", "pIC50": 7.40}
    ]}
  ]
}
